Key:
SaCodY [1] = target: T1, SaCodY (Staphylococcus aureus, UniProt Q2FHI3); experiment: X-ray crystal structure of complex; assay type: binding
T1 construct: gene codY; full-length; expressed in E. coli BL21(DE3)pLysS; N-terminal His6-tag cut with TEV protease, Gly-Ala remnant before start Met

EfCodY [2] = target: T2, EfCodY (Enterococcus faecalis, UniProt Q834K5); experiment: bio-layer interferometry, reduction of Leu-activated binding to hutP operator DNA; assay type: biochemical; conditions: 2 mM GTP with 10 mM Leu; pH 8, 2 mM MgCl2, 25 °C; negative effect, binding to protein only presumed
T2 construct: gene codY; full-length; expressed in E. coli BL21(DE3)pLysS; N-terminal His6-tag cut with TEV protease, Gly-Ala remnant before start Met; two dimers on 30-bp DNA

SaCodY [3] = target: T1, SaCodY; experiment: bio-layer interferometry, activation of binding to hutP operator DNA; assay type: biochemical; conditions: 10 mM Leu with 2 mM GTP; pH 8, 2 mM MgCl2, 25 °C; allosteric activator
EfCodY [4] = target: T2, EfCodY; experiment: Leu binding assay (method in supplement); conditions: compared with Lys74Ala mutant; details only in supplement
EfCodY [5] = target: T2, EfCodY; experiment: X-ray crystal structure of complex; assay type: binding; conditions: co-crystal with 30-bp DNA; 4 mM Leu; GAF domain BCAA site of protomers A and B only

T2 sequence (Q834K5 entry or part of it): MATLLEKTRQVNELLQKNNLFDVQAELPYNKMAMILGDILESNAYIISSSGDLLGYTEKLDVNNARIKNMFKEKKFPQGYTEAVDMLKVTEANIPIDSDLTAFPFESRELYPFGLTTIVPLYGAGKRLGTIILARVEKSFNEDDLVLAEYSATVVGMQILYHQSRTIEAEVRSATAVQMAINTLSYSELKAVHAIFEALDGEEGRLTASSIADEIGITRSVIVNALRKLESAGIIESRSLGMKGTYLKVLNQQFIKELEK
T1 sequence (Q2FHI3 whole entry): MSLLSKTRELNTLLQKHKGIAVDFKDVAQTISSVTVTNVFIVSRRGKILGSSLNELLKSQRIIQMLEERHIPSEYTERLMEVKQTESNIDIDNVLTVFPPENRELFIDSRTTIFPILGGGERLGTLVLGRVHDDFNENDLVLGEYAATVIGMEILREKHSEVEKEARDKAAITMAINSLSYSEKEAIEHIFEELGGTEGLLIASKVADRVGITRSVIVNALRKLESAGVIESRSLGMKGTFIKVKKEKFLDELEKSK

CC[C@H](C)[C@H](N)C(=O)O [Ile]
X-ray crystal structure of complex (SaCodY [1]; co-crystal with GTP and 30-bp DNA, 20 mM Ile, GAF domain BCAA site): The SaCodY-DNA complex was co-crystallized with Ile and GTP

Nc1nc2c(ncn2[C@@H]2O[C@H](COP(=O)(O)OP(=O)(O)OP(=O)(O)O)[C@@H](O)[C@H]2O)c(=O)[nH]1 [GTP]
X-ray crystal structure of complex (SaCodY [1]; co-crystal with Ile and 30-bp DNA, 2 mM GTP, GAF domain near dimer interface, allosteric): The SaCodY-DNA complex was co-crystallized with Ile and GTP
bio-layer interferometry, reduction of Leu-activated binding to hutP operator DN (EfCodY [2]): Together with Leu, GTP reduced activation, presumably by interacting with the protein

CC(C)C[C@H](N)C(=O)O [Leu]
bio-layer interferometry, activation of binding to hutP operator DNA (SaCodY [3]): SaCodY was activated by Ile (and to a lesser extent by Leu) and GTP
affinity (EfCodY [4]): the mutant binds Leu with comparable affinity to the wild type
X-ray crystal structure of complex (EfCodY [5]): EfCodY complex was co-crystallized in the presence of Leu, yet Leu bound only to protomers

Source: PMC10415144, “Structural insights into CodY activation and DNA recognition” (Nucleic Acids Research, 2023)
